According to patent US6583166B1, “Triazole compounds with dopamine-D3-receptor affinity” (Abbott Laboratories, priority 1999, dated 2003):

Molecular target: T1, human D3-receptor (Homo sapiens, UniProt P35462)
T1 construct: host or cells: CCL 1,3 mouse fibroblasts
Assay: D3 binding test (125iodosulpiride displacement)
Conditions: cloned human D3 receptor in CCL 1,3 mouse fibroblast membranes; 0.1 nM 125iodosulpiride; read-out: Ki value for the binding toward the D3 receptor
Procedure: Cloned human D3-receptor-expressing CCL 1,3 mouse fibroblasts, obtainable from Res. Biochemicals Internat. One Strathmore Rd., Natick, Mass. 01760-2418 USA, were used for the binding studies.
The D3-expressing cells were multiplied in RPMI-1640 containing 10% fetal calf serum (GIBCO No. 041-32400 N); 100 U of penicillin/ml and 0.2% streptomycin (GIBO BRL, Gaithersburg, Md., USA). After 48 h, the cells were washed with PBS and incubated for 5 min with 0.05% trypsin-containing PBS. After that, the solution was neutralized with medium and the cells were collected by centrifuging at 300 g. In order to lyse the cells, the pellet was washed briefly with lysis buffer (5 mM Tris-HCl, pH 7.4, containing 10% glycerol) and after that incubated, at 4° C. for 30 min, at a concentration of 10^7 cells/ml of lysis buffer. […]
For the D3-receptor binding test, the membranes were suspended in incubation buffer (50 mM Tris-HCl, pH 7.4, containing 120 mM NaCl, 5 mM KC1, 2 mM CaCl2, 2 mM MgCl2, 10 μM quinolinol, 0.1% ascorbic acid and 0.1% BSA), at a concentration of approx. 10^6 cells/250 μl of test mixture, and incubated at 30° C. […] 0.1 nM ^125iodosulpiride in the presence and absence of the test substance. The nonspecific binding was determined using 10^−6 M spiperone. […]
The Ki values were determined by means of nonlinear regression analysis using the LIGAND program. […]

T1 sequence (P35462 whole entry): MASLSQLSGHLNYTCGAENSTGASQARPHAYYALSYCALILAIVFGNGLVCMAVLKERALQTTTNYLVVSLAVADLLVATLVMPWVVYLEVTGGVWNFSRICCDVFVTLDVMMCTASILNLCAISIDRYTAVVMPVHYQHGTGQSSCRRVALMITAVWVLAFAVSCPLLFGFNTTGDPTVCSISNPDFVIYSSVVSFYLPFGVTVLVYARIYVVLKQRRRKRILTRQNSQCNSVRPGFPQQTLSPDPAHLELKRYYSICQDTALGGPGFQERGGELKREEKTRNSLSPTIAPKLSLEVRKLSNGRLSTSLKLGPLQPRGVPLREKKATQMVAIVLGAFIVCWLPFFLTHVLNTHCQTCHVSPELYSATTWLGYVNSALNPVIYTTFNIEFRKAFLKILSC

Cn1c(SCCCN2CCC3c4c(Br)cccc4CCC32)nnc1-c1ccccc1 (mixture of isomers) [Example 1, (cis/trans) 9-Bromo-3-{3-[(4-methyl-5-phenyl-4H-1,2,4-triazol-3-yl)sulfanyl]propyl}-2,3,3a,4,5,9b-hexahydro-1H-benzo[e]indole]
Ki: 50 nM
